Structures are written as SMILES. Like-named read-outs stand apart in the source and are kept apart here.

One assay concerns the target T1, XIAP BIR3 (Homo sapiens, UniProt P98170).
T1 construct: His-BIR3 (241-356, XIAP)
The assay is described as follows: XIAP-BIR3/SMAC Homogeneous Time Resolved Fluorescence (HTRF) Assay. The format is binding. The method in brief:
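Competition HTRF between XIAP-BIR3 and SMAC; reaction 60 min at room temperature, then anti-6×His-terbium Fab detection for a further 30 min.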
(In general: Time-resolved FRET reads energy transfer from a long-lived donor to a nearby acceptor.)

The target in the next assay is T2, XIAP BIR2-3 (Homo sapiens, UniProt P98170, C202A/C213G).
T2 construct: His-BIR2-3 (125-356, C202A/C213G, XIAP)
The assay is described as follows: XIAP-BIR2-3 dimeric SMAC Peptide Homogeneous Time Resolved Fluorescence (HTRF) Assay. The format is binding. As to the method: B. […] Assays were performed in black, flat-bottom, 384-well plates. […] Compounds were dissolved at 3 mM in dimethylsulfoxide (DMSO) and evaluated at eleven serially diluted concentrations. IC50 and Ki values were derived by non-linear regression analysis.

Where [1] appears, read: 1 nM N-His-BIR3 (241-356, XIAP), 5 nM fluorescein labeled SMAC peptide, HTRF signal, read-out: XIAP BIR3 IC50.
Setting [2] is: 0.5 nM N-His-BIR2-3 (125-356, C202A/C213G, XIAP), 20 nM fluorescein labeled dimeric SMAC peptide, HTRF signal, read-out: XIAP BIR2-3 IC50.

T1 sequence (P98170 241-356): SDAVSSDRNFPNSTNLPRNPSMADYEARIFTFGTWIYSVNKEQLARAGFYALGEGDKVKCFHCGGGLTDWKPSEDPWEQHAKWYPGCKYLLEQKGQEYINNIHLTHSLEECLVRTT
T2 sequence (P98170 125-356 C202A/C213G): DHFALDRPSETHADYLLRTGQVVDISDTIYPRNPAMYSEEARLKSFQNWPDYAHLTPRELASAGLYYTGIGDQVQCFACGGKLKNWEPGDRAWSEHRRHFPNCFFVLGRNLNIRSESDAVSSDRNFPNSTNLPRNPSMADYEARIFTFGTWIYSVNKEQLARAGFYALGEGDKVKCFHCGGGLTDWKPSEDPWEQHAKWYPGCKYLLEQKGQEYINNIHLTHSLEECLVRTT

`CN[C@@H](C)C(=O)N[C@H](C(=O)N1Cc2cc([C@H]3C[C@@H](C(=O)N[C@@H](Cc4ccc5ccccc5c4)C(=O)OC)N(C(=O)[C@@H](NC(=O)[C@H](C)NC)C(C)(C)C)C3)ccc2C[C@H]1C(=O)N[C@@H](Cc1ccc2ccccc2c1)C(=O)OC)C(C)(C)C` [Example 82, (S)-Methyl 2-((2S,4R)-1-((S)-3,3-dimethyl-2-((S)-2-(methylamino)propanamido)butanoyl)-4-((S)-2-((S)-3,3-dimethyl-2-((S)-2-(methylamino)propanamido)butanoyl)-3-(((S)-1-methoxy-3-(naphthalen-2-yl)-1-oxopropan-2-yl)carbamoyl)-1,2,3,4-tetrahydroisoquinolin-7-yl)pyrrolidine-2-carboxamido)-3-(naphthalen-2-yl)propanoate]: the IC50 on XIAP BIR3 (setting [1]) is 111 nM; on XIAP BIR2-3 (setting [2]), 68.2 nM.
Turning to `CN[C@@H](C)C(=O)N[C@H](C(=O)N1Cc2cc(C(=O)N[C@H]3C[C@@H](C(=O)N[C@@H]4CCCc5ccccc54)N(C(=O)[C@@H](NC(=O)[C@H](C)NC)C(C)(C)C)C3)ccc2C[C@H]1C(=O)N[C@@H]1CCCc2ccccc21)C(C)(C)C` [Example 1, (S)-2-((S)-3,3-Dimethyl-2-((S)-2-(methylamino)propanamido)butanoyl)-N^7-((3S,5S)-1-((S)-3,3-dimethyl-2-((S)-2-(methylamino)propanamido)butanoyl)-5-(((R)-1,2,3,4-tetrahydronaphthalen-1-yl)carbamoyl)pyrrolidin-3-yl)-N^3—((R)-1,2,3,4-tetrahydronaphthalen-1-yl)-1,2,3,4-tetrahydroisoquinoline-3,7-dicarboxamide], the results for the IC50 on XIAP BIR3 and against XIAP BIR2-3 were 11 nM and 3 nM, respectively.
For `CN[C@@H](C)C(=O)N[C@H](C(=O)N1Cc2cc(C(=O)N[C@H]3C[C@@H](C(=O)N[C@@H]4CCCc5ccccc54)N(C(=O)[C@@H](NC(=O)[C@H](C)NC)C(C)(C)C)C3)ccc2C[C@H]1C(=O)N[C@@H]1CCCc2ccccc21)C1CCCC1` [Example 12, (S)-2-((S)-2-Cyclopentyl-2-((S)-2-(methylamino)propanamido)acetyl)-N^7-((3S,5S)-1-((S)-3,3-dimethyl-2-((S)-2-(methylamino)propanamido)butanoyl)-5-(((R)-1,2,3,4-tetrahydronaphthalen-1-yl)carbamoyl)pyrrolidin-3-yl)-N^3-((R)-1,2,3,4-tetrahydronaphthalen-1-yl)-1,2,3,4-tetrahydroisoquinoline-3,7-dicarboxamide], the values for the IC50 at XIAP BIR3 (setting [1]) and at XIAP BIR2-3 (setting [2]) were 19 nM and 15 nM, respectively.
With `CN[C@@H](C)C(=O)N[C@H](C(=O)N1Cc2cc(N[C@H]3C[C@@H](C(=O)N[C@@H]4CCCc5ccccc54)N(C(=O)[C@@H](NC(=O)[C@H](C)NC)C(C)(C)C)C3)ccc2C[C@H]1C(=O)N[C@@H]1CCCc2ccccc21)C(C)(C)C` [Example 20, (S)-2-((S)-3,3-Dimethyl-2-((S)-2-(methylamino)propanamido)butanoyl)-7-(((3S,5S)-1-((S)-3,3-dimethyl-2-((S)-2-(methylamino)propanamido)butanoyl)-5-(((R)-1,2,3,4-tetrahydronaphthalen-1-yl)carbamoyl)pyrrolidin-3-yl)amino)-N—((R)-1,2,3,4-tetrahydronaphthalen-1-yl)-1,2,3,4-tetrahydroisoquinoline-3-carboxamide], the IC50 at XIAP BIR3 came to 13 nM; against XIAP BIR2-3 it was 3 nM.
For the compound `CN[C@@H](C)C(=O)N[C@H](C(=O)N1Cc2cc([C@H]3C[C@@H](C(=O)N[C@@H]4CCCc5ccccc54)N(C(=O)[C@@H](NC(=O)[C@H](C)NC)C(C)(C)C)C3)ccc2C[C@H]1C(=O)N[C@@H](CO)c1ccccc1F)C(C)(C)C` [Example 36, (S)-2-((S)-3,3-Dimethyl-2-((S)-2-(methylamino)propanamido)butanoyl)-7-((3R,5S)-1-((S)-3,3-dimethyl-2-((S)-2-(methylamino)propanamido)butanoyl)-5-(((R)-1,2,3,4-tetrahydronaphthalen-1-yl)carbamoyl)pyrrolidin-3-yl)-N-((R)-1-(2-fluorophenyl)-2-hydroxyethyl)-1,2,3,4-tetrahydroisoquinoline-3-carboxamide], the values for the IC50 on XIAP BIR3 (setting [1]) and at XIAP BIR2-3 (setting [2]) were 3.3 nM and 1.7 nM, respectively.
For `CN[C@@H](C)C(=O)N[C@H](C(=O)N1Cc2cc(C(=O)N[C@H]3C[C@@H](C(=O)NC4CCCc5ccccc54)N(C(=O)[C@@H](NC(=O)[C@H](C)NC)C(C)(C)C)C3)ccc2C[C@H]1C(=O)NC1CCCc2ccccc21)C1CCOCC1` (stereo partly drawn) [Example 13], in that order: 6 nM and 2 nM.
For `CN[C@@H](C)C(=O)N[C@H](C(=O)N1Cc2cc([C@H]3C[C@@H](C(=O)N[C@@H]4CCCc5ccccc54)N(C(=O)[C@@H](NC(=O)[C@H](C)NC)C(C)(C)C)C3)ccc2C[C@H]1C(=O)N[C@@H](Cc1ccccc1)c1noc(C)n1)C(C)(C)C` [Example 45, (S)-2-((S)-3,3-Dimethyl-2-((S)-2-(methylamino)propanamido)butanoyl)-7-((3R,5S)-1-((S)-3,3-dimethyl-2-((S)-2-(methylamino)propanamido)butanoyl)-5-(((R)-1,2,3,4-tetrahydronaphthalen-1-yl)carbamoyl)pyrrolidin-3-yl)-N—((S)-1-(5-methyl-1,2,4-oxadiazol-3-yl)-2-phenylethyl)-1,2,3,4-tetrahydroisoquinoline-3-carboxamide], the values for the IC50 at XIAP BIR3 (setting [1]) and at XIAP BIR2-3 (setting [2]) were 9.2 nM and 4.2 nM, respectively.
For `CN[C@@H](C)C(=O)N[C@H](C(=O)N1C[C@@H](c2ccc3c(c2)CN(C(=O)[C@@H](NC(=O)[C@H](C)NC)C(C)(C)C)[C@H](C(=O)N[C@@H]2CCCc4ccccc42)C3)C[C@H]1C(=O)N[C@@H](Cc1ccccc1)C(=O)N1CCOCC1)C(C)(C)C` [Example 47, (S)-2-((S)-3,3-Dimethyl-2-((S)-2-(methylamino)propanamido)butanoyl)-7-((3R,5S)-1-((S)-3,3-dimethyl-2-((S)-2-(methylamino)propanamido)butanoyl)-5-(((S)-1-morpholino-1-oxo-3-phenylpropan-2-yl)carbamoyl)pyrrolidin-3-yl)-N-((R)-1,2,3,4-tetrahydronaphthalen-1-yl)-1,2,3,4-tetrahydroisoquinoline-3-carboxamide], in that order: 17.5 nM and 2.4 nM.
In the same order, the values of `CN[C@@H](C)C(=O)N[C@H](C(=O)N1Cc2cc([C@H]3C[C@@H](C(=O)N[C@@H]4CCCc5ccccc54)N(C(=O)[C@@H](NC(=O)[C@H](C)NC)C(C)(C)C)C3)ccc2C[C@H]1C(=O)N[C@H](CO)c1ccccc1F)C(C)(C)C` [Example 35, (S)-2-((S)-3,3-Dimethyl-2-((S)-2-(methylamino)propanamido)butanoyl)-7-((3R,5S)-1-((S)-3,3-dimethyl-2-((S)-2-(methylamino)propanamido)butanoyl)-5-(((R)-1,2,3,4-tetrahydronaphthalen-1-yl)carbamoyl)pyrrolidin-3-yl)-N-((S)-1-(2-fluorophenyl)-2-hydroxyethyl)-1,2,3,4-tetrahydroisoquinoline-3-carboxamide] are 2.5 nM and 1.3 nM.
For `CN[C@@H](C)C(=O)N[C@H](C(=O)N1Cc2cc([C@H]3C[C@@H](C(=O)N[C@@H]4CCCc5ccccc54)N(C(=O)[C@@H](NC(=O)[C@H](C)NC)C(C)(C)C)C3)ccc2C[C@H]1C(=O)Nc1cc(C)nn1-c1ccccc1)C(C)(C)C` [Example 38, (S)-2-((S)-3,3-Dimethyl-2-((S)-2-(methylamino)propanamido)butanoyl)-7-((3R,5S)-1-((S)-3,3-dimethyl-2-((S)-2-(methylamino)propanamido)butanoyl)-5-(((R)-1,2,3,4-tetrahydronaphthalen-1-yl)carbamoyl)pyrrolidin-3-yl)-N-(3-methyl-1-phenyl-1H-pyrazol-5-yl)-1,2,3,4-tetrahydroisoquinoline-3-carboxamide], in that order: 3.2 nM and 1.8 nM.
For `CN[C@@H](C)C(=O)N[C@H](C(=O)N1C[C@@H](c2ccc3c(c2)CN(C(=O)[C@@H](NC(=O)[C@H](C)NC)C(C)(C)C)[C@H](C(=O)N[C@@H]2CCCc4ccccc42)C3)C[C@H]1C(=O)N[C@@H](Cc1ccccc1)C(=O)N(C)CCc1ccccn1)C(C)(C)C` [Example 54, (S)-2-((S)-3,3-Dimethyl-2-((S)-2-(methylamino)propanamido)butanoyl)-7-((3R,5S)-1-((S)-3,3-dimethyl-2-((S)-2-(methylamino)propanamido)butanoyl)-5-(((S)-1-(methyl(2-(pyridin-2-yl)ethyl)amino)-1-oxo-3-phenylpropan-2-yl)carbamoyl)pyrrolidin-3-yl)-N-((R)-1,2,3,4-tetrahydronaphthalen-1-yl)-1,2,3,4-tetrahydroisoquinoline-3-carboxamide], the IC50 was 6.8 nM on XIAP BIR3 (setting [1]) and 2.9 nM at XIAP BIR2-3 (setting [2]).
For `CN[C@@H](C)C(=O)N[C@H](C(=O)N1Cc2cc([C@H]3C[C@@H](C(=O)N[C@@H]4CCCc5ccccc54)N(C(=O)[C@@H](NC(=O)[C@H](C)NC)C(C)(C)C)C3)ccc2C[C@H]1C(=O)N[C@@H](Cc1ccccc1)C(=O)N(C)C)C(C)(C)C` [Example 42, (S)-2-((S)-3,3-Dimethyl-2-((S)-2-(methylamino)propanamido)butanoyl)-7-((3R,5S)-1-((S)-3,3-dimethyl-2-((S)-2-(methylamino)propanamido)butanoyl)-5-(((R)-1,2,3,4-tetrahydronaphthalen-1-yl)carbamoyl)pyrrolidin-3-yl)-N—((S)-1-(dimethylamino)-1-oxo-3-phenylpropan-2-yl)-1,2,3,4-tetrahydroisoquinoline-3-carboxamide], in that order: 1.6 nM and 1.2 nM.

The term IC50 denotes the concentration needed to halve the response being measured.

Values taken from patent US8889712B2, “IAP antagonists” (Bristol-Myers Squibb Company, priority 2012, dated 2014).
